# Patent US10131664B2 (Celgene Quanticel Research, Inc., priority 2013, dated 2018)
# How the values were obtained:
# full-length human LSD1 = full-length human LSD1 (Homo sapiens (Human), UniProt O60341); assay: In vitro enzyme inhibition assay LSD-1 (TR-FRET); format: biochemical; conditions: TR-FRET, 0.1 nM LSD1, 50 nM H3K4me1-biotin peptide, 2 μM FAD, pH7.3; read-out: LSD1 IC50
# Description: This assay determines the ability of a test compound to inhibit LSD1 demethylase activity.
# The enzymatic assay of LSD1 activity is based on Time Resolved-Fluorescence Resonance Energy Transfer (TR-FRET) detection.
# The ability of the compounds disclosed herein to inhibit LSD1 activity was quantified and the respective IC50 value was determined. Table 5 provides the IC50 values of various substituted heterocyclic compounds disclosed herein.
# THP-1 (AML) cells = assay: LSD1 CD11b cellular assay (flow cytometry); format: cell-based; conditions: Homo sapiens, 96 h; CD11b expression in THP-1 (AML) cells, flow cytometry, 4 days incubation; read-out: Cellular IC50
# In short: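 THP-1 AML cells treated with serially diluted compound (0.2% DMSO final) for 4 days at 37 °C, 5% CO2. CD11b expression measured by flow cytometry with DAPI staining; IC50 derived from percent CD11b-positive cells versus inhibitor concentration.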
IC50 (full-length human LSD1),IC50 (THP-1 (AML) cells),Compound
< 100 nM,< 100 nM,"CNc1nc(N2CCC(N)CC2)nc(-c2ccc(C#N)c(F)c2)c1-c1cnc2c(cnn2C)c1 [Example 175, 4-[2-(4-aminopiperidin-1-yl)-5-{1-methyl-1H-pyrazolo[3,4-b]pyridin-5-yl}-6-(methylamino)pyrimidin-4-yl]-2-fluorobenzonitrile]"
< 100 nM,< 100 nM,"CNc1nc(N2CCC(N)CC2)nc(-c2ccc(C#N)cc2)c1-c1cnc2c(c1)nnn2C [Example 176, 4-[2-(4-aminopiperidin-1-yl)-5-{3-methyl-3H-[1,2,3]triazolo[4,5-b]pyridin-6-yl}-6-(methylamino)pyrimidin-4-yl]benzonitrile]"
< 100 nM,< 100 nM,"CNc1nc(N2CC[C@@H](N)[C@@H](F)C2)nc(-c2ccc(C#N)cc2)c1-c1ccc2nn(C)cc2c1 [Example 177, 4-{2-[(3S,4R)-4-amino-3-fluoropiperidin-1-yl]-5-(2-methyl-2H-indazol-5-yl)-6-(methylamino)pyrimidin-4-yl}benzonitrile]"
< 100 nM,< 100 nM,"CNc1nc(N2CC[C@H](N)[C@H](F)C2)nc(-c2ccc(C#N)cc2)c1-c1ccc2nn(C)cc2c1 [Example 178, 4-{2-[(3R,4S)-4-amino-3-fluoropiperidin-1-yl]-5-(2-methyl-2H-indazol-5-yl)-6-(methylamino)pyrimidin-4-yl}benzonitrile]"
